Results from patent publication US11071735B2, “Treatment of inflammatory conditions and autoimmune diseases with glucose uptake inhibitors” (Kadmon Corporation, LLC, priority 2017, dated 2021).

Legend:
THP1 monocytes = test: glycolysis assay in LPS-activated THP1 monocytes; type: cell-based; conditions: 1 μg/ml LPS 16 hrs, then one-hour glycolysis assay with oligomycin
Method: In FIG. 5A, THP1 cells were activated with 1 μg/ml LPS for 16 hrs prior to a one-hour glycolysis assay (Example 2+Oligomycin). In FIG. 5B, THP1 cells were treated with Example 2 one hour prior to a 16 hour treatment with 1 μg/ml LPS, after which MCP-1 secretion into the media was measured by ELISA (R&D systems) and cell number measured by Cell Titer Glo (Promega).
THP1 Monocyte assay: THP1 monocytic cancer cells were activated with 1 ug/ml LPS (Sigma-Aldrich). The previously described glycolysis assay was performed 16 hrs post-activation. For cytokine secretion, cells were pre-treated for one hour with GLUT inhibitors prior to 16 hours of 1 μg/ml LPS treatment.

[1] = tested on: markers of Teff and Treg cells; test: flow cytometry of cytokines and lineage transcription factors in activated CD4 T cells; type: cell-based, human; conditions: 1 μM; CD4 T cells activated 48 hrs with IL-1β, TGF-β
Method: FIG. 7. […] FIG. 7A. CD4 T cells were activated for 48 hrs in the presence of IL-1β, TGF-β and 1 μM of the Example 2 compound. For the last 5 hrs, PMA/Ionomycin/Brefeldin A was added and intracellular staining for cytokines was performed. Flow cytometry was used to assess INFγ and IL-17A levels (gated on live cells). FIG. 7B. Cells were cultured and treated as in FIG. 7A, excluding PMA/Ionomycin/Brefeldin A treatment. Flow cytometry was used to assess levels of CD4 T cell lineage defining transcription factors.
GLUT1 and GLUT3 inhibitors downregulate the markers of T effector cells but not T regulatory cells. In, CD4 T cells were activated for 48 hrs in the presence of […], TGF-β and 1 μM of compound Example 2. […] Flow cytometry was used to assess INFγ and IL-17A levels (gated on live cells) and quantification of percent positive cells positive is shown in FIG. 7A. […]
T cell assays: Human CD4 T cells were purified using RossetteSep Human CD4 T cell Enrichment Cocktail. […] IL-17 levels were measured by ELISA (R&D systems, Human IL-17 Quantikine ELISA kit). Proliferation was measured by Cell Titer Glo (Promega). Intracellular staining was performed and analyzed using the Guava EasyCyte flow cytometer. […] Protein levels and phosphorylation status were assessed by western blot analysis using antibodies purchased from Cell Signaling.

[2] = tested on: phosphorylation of STAT1 and STAT3; test: Western blot of STAT1/STAT3 phosphorylation in activated CD4 T cells; type: cell-based, human; conditions: 1 μM; CD4 T cells activated 48 hrs with IL-1β, TGF-β
Method: FIG. 8. […] FIG. 8A. CD4 T cells were activated for 48 hrs in the presence of IL-1β, TGF-β and 1 μM of the Example 2 compound. Western blotting analysis was used to determine the activation status of Stat3, Stat1 and pS6K (as a marker of mTORC1 activity) and the expression of GLUT1 protein. FIG. 8B. CD4 T cells were activated for 48 hrs and treated with the indicated compounds for 1.5 or 4 hrs. Western blotting analysis was used to determine the activation status of Stat3, Stat1 and pS6K (as a marker of mTORC1 activity). GLUT1/3 inhibitors downregulate phosphorylation of STAT1 and STAT3, key signaling molecules in activated T cells. In FIG. 8A. CD4 T cells were activated for 48 hrs in the presence of IL-1β, TGF-β and 1 μM of the Example 2 compound. Western blotting analysis was used to determine the activation status of Stat3, Stat1 and pS6K (as a marker of mTORC1 activity) and the expression of GLUT1 protein. CD4 T cells were activated for 48 hrs and treated with the indicated compounds in FIG. 8B for 1.5 or 4 hrs. […] IL-17 levels were measured by ELISA (R&D systems, Human IL-17 Quantikine ELISA kit). Proliferation was measured by Cell Titer Glo (Promega). Intracellular staining was performed and analyzed using the Guava EasyCyte flow cytometer. […] Protein levels and phosphorylation status were assessed by western blot analysis using antibodies purchased from Cell Signaling.

SMILES: CCOc1ccc2nc(-c3cccc(OCC(=O)NC(C)C)c3)nc(Nc3ccc(-c4cn[nH]c4)cc3)c2c1 [Ex. 2, 2-(3-(4-((4-(1H-pyrazol-4-yl)phenyl)amino)-6-ethoxyquinazolin-2-yl)phenoxy)-N-isopropylacetamide]
- glycolysis in LPS stimulated THP1 monocytes (THP1 monocytes): inhibit glycolysis
- markers of Teff and Treg cells [1]: downregulate markers of Teff but not Treg cells
- phosphorylation of STAT1 and STAT3 [2]: downregulate the phosphorylation of STAT1 and STAT3
